In US5169634A, “Pharmaceutical dosage form for the medication of fish” (priority 1988, dated 1992):

Key:
Type in all cases: cell-based
[1] = test system: Vibrio salmonicidia; experiment: Minimal inhibitory concentration, Vibrio salmonicidia
[2] = test system: Vibrio anguillarum, serotype 1; experiment: Minimal inhibitory concentration, Vibrio anguillarum, serotype 1
[3] = test system: Yersinia ruckeri, serotype 2; experiment: Minimal inhibitory concentration, Yersinia ruckeri, serotype 2
[4] = test system: Yersinia ruckeri, serotype 3; experiment: Minimal inhibitory concentration, Yersinia ruckeri, serotype 3

CCn1cc(C(=O)O)c(=O)c2cc3c(cc21)OCO3 [Oxolinic Acid, oxolinic acid]
Minimal Inhibitory Concentration [1]: 0.07 | Minimal Inhibitory Concentration [2]: 0.035 | Minimal Inhibitory Concentration [3]: 1.0 | Minimal Inhibitory Concentration [4]: 0.25

CC1CCc2cc(F)cc3c(=O)c(C(=O)O)cn1c23 (centres unmarked) [Flumequine, flumequine]
Minimal Inhibitory Concentration [1]: 0.035 | Minimal Inhibitory Concentration [2]: 0.035 | Minimal Inhibitory Concentration [3]: 1.2 | Minimal Inhibitory Concentration [4]: 0.25
